Data as given in ChEMBL document CHEMBL1148972, “Isomalabaricane-type compounds from the marine sponge Rhabdastrella aff. distincta” (J Nat Prod, 2004).
≈ marks a conversion by molar mass, not a printed value.

How the values were obtained:
Type in all cases: functional, cell-based
[1] = Cytotoxicity against human PC-3MIE8 cells after 48 hrs by MTT assay; details: PC-3MIE8, 48 h
[2] = Cytotoxicity against human […] cells after 48 hrs by MTT assay
HeLa = test: Cytotoxicity against human HeLa cells after 48 hrs by MTT assay
HL-60 = test: Cytotoxicity against human HL60 cells after 48 hrs by MTT assay; details: HL-60, 48 h
BGC-823 = test: Cytotoxicity against human BGC823 cells after 48 hrs by MTT assay; details: BGC-823, 48 h
Bel-7402 = test: Cytotoxicity against human Bel7402 cells after 48 hrs by MTT assay; details: Bel-7402, 48 h

SMILES | IC50 [1] | IC50 [2] | IC50 (HeLa) | IC50 (HL-60) | IC50 (BGC-823) | IC50 (Bel-7402)
CC(=O)/C=C\C(=O)/C(C)=C/C=C/C(C)=C1\C(=O)C[C@H]2[C@@]3(C)CCC(=O)C(C)(C)[C@@H]3CC[C@]12C [ISOGEODITIN A] | 0.07 µg/mL (≈ 0.155 µM) | 1.2 µg/mL (≈ 2.66 µM) | 0.35 µg/mL (≈ 0.777 µM) | 0.13 µg/mL (≈ 0.288 µM) | 0.47 µg/mL (≈ 1.04 µM) | 3.7 µg/mL (≈ 8.21 µM)
CC(/C=C/C=C(C)/C=C/C=C(\C)C(=O)O)=C1/C(=O)C[C@H]2[C@@]3(C)CCC(=O)C(C)(C)[C@@H]3CC[C@]12C [STELLETIN E] | > 5 µg/mL | > 5 µg/mL | > 5 µg/mL | > 5 µg/mL | > 5 µg/mL | > 5 µg/mL
CC(/C=C/C=C(\C)c1ccc(C)c(=O)o1)=C1/C(=O)C[C@H]2[C@@]3(C)CCC(=O)C(C)(C)[C@@H]3CC[C@]12C [STELLETTIN B] | > 5 µg/mL | > 5 µg/mL | > 5 µg/mL | 0.2 µg/mL (≈ 0.432 µM) | > 5 µg/mL | > 5 µg/mL
CC(=O)O[C@H]1CC[C@@]2(C)[C@@H](CC[C@]3(C)\C(=C(C)/C=C/C=C(\C)c4ccc(C)c(=O)o4)C(=O)C[C@@H]23)C1(C)C [STELLETTIN C] | 3.1 µg/mL (≈ 6.12 µM) | > 5 µg/mL | > 5 µg/mL | > 5 µg/mL | > 5 µg/mL | > 5 µg/mL
CC(=O)/C=C\C(=O)/C(C)=C/C=C/C(C)=C1/C(=O)C[C@H]2[C@@]3(C)CCC(=O)C(C)(C)[C@@H]3CC[C@]12C | > 5 µg/mL | > 5 µg/mL | > 5 µg/mL | > 5 µg/mL | > 5 µg/mL | > 5 µg/mL
CC(=O)/C=C/C(=O)/C(C)=C/C=C/C(C)=C1\C(=O)C[C@H]2[C@@]3(C)CC[C@H](OC(C)=O)C(C)(C)[C@@H]3CC[C@]12C [GEODITIN B] | > 5 µg/mL | > 5 µg/mL | > 5 µg/mL | > 5 µg/mL | > 5 µg/mL | > 5 µg/mL
CC(/C=C/C=C(\C)C(=O)O)=C\C=C\C(C)=C1\C(=O)C[C@H]2[C@@]3(C)CCC(=O)C(C)(C)[C@@H]3CC[C@]12C [RHABDASTRELLIC ACID A] | > 5 µg/mL | > 5 µg/mL | > 5 µg/mL | > 5 µg/mL | > 5 µg/mL | > 5 µg/mL
CC1=CC[C@@H](/C(C)=C/C=C/C(C)=C2\C(=O)C[C@H]3[C@@]4(C)CCC(=O)C(C)(C)[C@@H]4CC[C@]23C)OC1=O [22,23-DIHYDROSTELLETTIN B] | > 5 µg/mL | > 5 µg/mL | > 5 µg/mL | > 5 µg/mL | > 5 µg/mL | > 5 µg/mL
CC(=O)/C=C\C(=O)/C(C)=C/C=C/C(C)=C1\C(=O)C[C@H]2[C@@]3(C)CC[C@H](OC(C)=O)C(C)(C)[C@@H]3CC[C@]12C [ISOGEODITIN B] | 3.4 µg/mL (≈ 6.87 µM) | 2.2 µg/mL (≈ 4.45 µM) | 3 µg/mL (≈ 6.06 µM) | 0.5 µg/mL (≈ 1.01 µM) | 2.2 µg/mL (≈ 4.45 µM) | 3.9 µg/mL (≈ 7.88 µM)
COC(=O)/C(C)=C/C=C/C(C)=C/C=C/C(C)=C1\C(=O)C[C@H]2[C@@]3(C)CCC(=O)C(C)(C)[C@@H]3CC[C@]12C [STELLETTIN E METHYL ESTER] | > 5 µg/mL | > 5 µg/mL | > 5 µg/mL | 4.2 µg/mL (≈ 8.77 µM) | > 5 µg/mL | > 5 µg/mL
COc1cc2c(c(OC)c1OC)-c1ccc(OC)c(=O)cc1[C@@H](NC(C)=O)CC2 [COLCHICINE] | 0.7 µg/mL (≈ 1.75 µM) | 0.2 µg/mL (≈ 0.501 µM) | 0.1 µg/mL (≈ 0.25 µM) | 1.6 µg/mL (≈ 4.01 µM) | 0.6 µg/mL (≈ 1.5 µM) | 0.3 µg/mL (≈ 0.751 µM)
COC(=O)/C(C)=C/C=C/C(C)=C/C=C/C(C)=C1/C(=O)C[C@H]2[C@@]3(C)CCC(=O)C(C)(C)[C@@H]3CC[C@]12C [RHABDASTRELLIC ACID A METHYL ESTER] | > 5 µg/mL | > 5 µg/mL | > 5 µg/mL | > 5 µg/mL | > 5 µg/mL | > 5 µg/mL
CC(=O)/C=C/C(=O)/C(C)=C/C=C/C(C)=C1\C(=O)C[C@H]2[C@@]3(C)CCC(=O)C(C)(C)[C@@H]3CC[C@]12C [GEODITIN A] | > 5 µg/mL | > 5 µg/mL | > 5 µg/mL | > 5 µg/mL | > 5 µg/mL | > 5 µg/mL
C\C(=C/C=C/C(C)=C1/C(=O)C[C@H]2[C@@]3(C)CCC(=O)C(C)(C)[C@@H]3CC[C@]12C)c1ccc(C)c(=O)o1 [STELLETIN A] | > 5 µg/mL | > 5 µg/mL | > 5 µg/mL | > 5 µg/mL | > 5 µg/mL | > 5 µg/mL
